In patent US20100240686A1, “CHEMICAL COMPOUNDS” (priority 2006, published 2010):

Molecular target: T1, CDK2/Cyclin E (Homo sapiens, UniProt P24941)
T1 construct: The open reading frames of CDK2 and Cyclin E were isolated by reverse transcriptase-PCR; made in house; host or cells: Spodoptera frugiperda SF21 insect cells (baculovirus co-infection, pVL1393)
Assay: in vitro kinase assay, Scintillation Proximity Assay (incorporation of [γ-33-P]-ATP into GST-Rb)
Assay type: biochemical
Settings: CDK2/Cyclin E partially-purified enzyme, GST-Rb substrate, 0.2 μM ATP, room temperature 60 minutes; read-out: CDK2 inhibitory activity IC50
Method: The compounds were tested in an in vitro kinase assay in 96 well format using Scintillation Proximity Assay (SPA—obtained from Amersham) for measuring incorporation of [γ-33-P]-Adenosine Triphosphate into a test substrate (GST-Retinoblastoma protein; GST-Rb). In each well was placed the compound to be tested (diluted in DMSO and water to correct concentrations) and in control wells either roscovitine as an inhibitor control or DMSO as a […] control.
Approximately 0.2 μl of CDK2/Cyclin E partially-purified enzyme (amount dependent on enzyme activity) diluted in 25 μl incubation buffer was added to each well then 20 μl of GST-Rb/ATP/ATP33 mixture (containing 0.5 μg GST-Rb and 0.2 μM ATP and 0.14 μCi [γ-33-P]-Adenosine Triphosphate in incubation buffer), and the resulting mixture shaken gently, then incubated at room temperature for 60 minutes. […]
The plates were sealed with Topseal-S plate sealers, left for two hours then spun at 2500 rpm, 1124×g., for 5 minutes. The plates were read on a Topcount for 30 seconds per well. […]
The open reading frames of CDK2 and Cyclin E were isolated by reverse transcriptase-PCR using HeLa cell and activated T cell mRNA as a template and cloned into the insect expression vector pVL1393 (obtained from Invitrogen 1995 catalogue number: V1392-20). […]

## Cc1ncc(-c2ccnc(Nc3ccc(C(=O)NCCN(C)C)c(F)c3)n2)n1C(C)C [Example 2, N-(2-Dimethylaminoethyl)-2-fluoro-4-[[4-(2-methyl-3-propan-2-yl-imidazol-4-yl)pyrimidin-2-yl]amino]benzamide]
  IC50: 3 nM
